Experimental data reported in paper PMC5559315 (Biochimie, 2017).
Entries after “also recorded” stand apart in the source; their conditions may differ. Like-named read-outs stand apart in the source and are kept apart here.

Columns and labels:
[1] = target: Cb H-NOX; conditions: ref [11], cited from earlier work
[2] = tested on: Vc H-NOX; experiment: Gaseous ligand binding kinetics of Vc H-NOX; parameters: species or system Vibrio cholera; conditions: reacted with 600 µM O2; data not shown
[3] = target: Vc H-NOX; conditions: ref [9], cited from earlier work
[4] = target: Ns H-NOX; conditions: cited from earlier work; for Kd / koff / kon: ref [10],[18]
[5] = tested on: ferrous So H-NOX; experiment: Stopped-flow binding kinetics of gaseous ligands to ferrous So H-NOX; parameters: species or system Shewanella oneidensis; conditions: for kon: ferrous So H-NOX, room temperature, anaerobic, CO: 6c CO-heme-His complex
[6] = target: Tt H-NOX; conditions: ref [11], cited from earlier work; for Kd / koff / kon: NO: 6c NO-heme-His complex
[7] = tested on: soluble guanylyl cyclase (sGC); conditions: cited from earlier work; for koff / Kd / kon: ref [18]
[8] = target: full length sGC from Manduca sexta (Ms sGC); conditions: read-out: KD(CO), ref [27]; cited from earlier work
[9] = target: Ms sGC NT2; conditions: read-out: KD(CO); Ms sGC NT2, lacking 48 residues from α-subunit N-terminus and the catalytic domains; ref [27]; cited from earlier work
[10] = target: β H-NOX/PAS subunit of Ms sGC; conditions: read-out: KD(CO); β H-NOX/PAS subunit alone; ref [27]; cited from earlier work
[11] = O2, estimated based on the sliding scale rule
[12] = NO: 6c NO-heme-His complex, O2: high pressure cell
[13] = Intermediate NO-heme--NO(−-His), estimated based on computer simulations
[14] = calculated as koff/kon, NO: 6c NO-heme-His complex

Compound | Kd ([1]; NO: 6c NO-heme-His complex) | Kd [4, 12] | Kd [6] | koff [6] | kon [6] | Kd ([7]; NO: 6c NO-heme-His complex) | koff ([7]; NO: 6c NO-heme-His complex) | kon ([7]; NO: 6c NO-heme-His complex) | koff ([1]; NO: 6c NO-heme-His complex) | kon ([1]; NO: 6c NO-heme-His complex) | Kd ([3]; NO: 6c NO-heme-His complex) | koff ([3]; NO: 6c NO-heme-His complex) | kon ([3]; NO: 6c NO-heme-His complex) | koff ([4]; NO: 6c NO-heme-His complex) | kon ([4]; NO: 6c NO-heme-His complex) | Kd [5, 14] | kon ([5]; NO: 6c NO-heme-His complex) | also measured
O=O [O2] | 53000 nM | 13000 µM | 44 nM | 1.9 s⁻¹ | 4.3e+07 M⁻¹ s⁻¹ |  |  |  |  |  |  |  |  |  |  |  |  | autoxidation rate ([1]; reacted with 600 µM O2): 0.02 s⁻¹; autoxidation rate [2]: ~ 4 × 10^−3 s^−1; Kd [3, 11]: ~1300 µM; autoxidation rate ([4]; ref [10]): 1.4e-05 s⁻¹; O2 binding ([5]; O2-saturated buffer, final [O2] = 600 µM, no oxyferrous intermediate): does not bind O2; Kd [5, 11]: ~4500 µM; autoxidation of oxyferrous heme [6]: no autoxidation is observed
nitric oxide [NO] | 0.08 nM | 0.00017 µM | 0.023 nM | 0.0034 s⁻¹ | 1.5e+08 M⁻¹ s⁻¹ | 0.054 µM | 27 s⁻¹ | 1.4e+08 M⁻¹ s⁻¹ | 0.012 s⁻¹ | 1.5e+08 M⁻¹ s⁻¹ | 0.00027 µM | 0.3 s⁻¹ | 1.1e+09 M⁻¹ s⁻¹ | 0.05 s⁻¹ | 3e+08 M⁻¹ s⁻¹ | 0.00015 µM | 1.5e+09 M⁻¹ s⁻¹ | koff ([7]; 5c heme-NO complex): 10^−4 – 10^−3 s^−1; koff ([7]; Intermediate NO-heme--NO(−-His)): 26 s⁻¹; conversion rate from 6c NO complex to 5c NO-heme complex ([7]; ref [23]): 8.5 s⁻¹; koff ([1]; 5c heme-NO complex): 0.0011 s⁻¹; kon [1, 13]: 1.8 × 10^7 ^‡ M^−1s^−1; Kd ([1]; read-out: KD(NO)(apparent), 5c heme-NO complex): 0.0073 nM; koff ([3]; 5c heme-NO complex): 10^−3 – 10^−2 s^−1; koff [3, 13]: 4.5 × 10^3 ^‡ s^−1; kon [3, 13]: 2.5 × 10^7 ^‡ M^−1s^−1; Kd ([4]; 2nd 6c NO-heme-His complex): 0.8 µM; koff ([4]; 2nd 6c NO-heme-His complex): 1.9 s⁻¹; kon ([4]; 2nd 6c NO-heme-His complex): 2.4e+06 M⁻¹ s⁻¹; koff,5c(NO) ([5]; 5c heme-NO complex, CO displacement method): 0.0013 s⁻¹; koff, dissociation rate of NO from the quaternary intermediate ([5]; Intermediate NO-heme--NO(−-His), y-intercept of secondary plot): very small; also recorded: small; formation rate of the 5c heme-NO complex (D → E) ([5]; not measured directly, significantly faster than kobs at 30 µM NO): > 600 s⁻¹
[C-]#[O+] [CO, carbon monoxide] | 670 nM | 1.4 µM | 160 nM | 0.5 s⁻¹ | 3.3e+06 M⁻¹ s⁻¹ | 260 µM | 10.7 s⁻¹ | 40000 M⁻¹ s⁻¹ | 1.0 s⁻¹ | 1.5e+06 M⁻¹ s⁻¹ | 0.77 µM | 0.85 s⁻¹ | 1.1e+06 M⁻¹ s⁻¹ | 3.6 s⁻¹ | 3e+06 M⁻¹ s⁻¹ | 0.85 µM | 820000 M⁻¹ s⁻¹ | Kd [8]: 50 to 100 µM; Kd [9]: 50 to 100 µM; Kd [10]: 0.2 µM
